Assay results: ChEMBL document CHEMBL2429832, “N-substituted 8-aminopentacyclo[5.4.0.0(2,6).0(3,10).0(5,9)]undecanes as σ receptor ligands with potential neuroprotective effects” (Bioorg Med Chem, 2013)

How the values were obtained:
[1] = biological target: 5-hydroxytryptamine receptor 1E (Homo sapiens) (UniProt P28566); test: Inhibition of 5-HT1E receptor (unknown origin) at 10 uM by PDSP assay relative to control
[2] = biological target: Beta-1 adrenergic receptor (Homo sapiens) (UniProt P08588); test: Inhibition of adrenergic beta1 receptor (unknown origin) at 10 uM by PDSP assay relative to control
[3] = biological target: T1, D(4) dopamine receptor (Homo sapiens) (UniProt P21917); test: Inhibition of dopamine D4 receptor (unknown origin) at 10 uM by PDSP assay relative to control
T1 sequence (whole entry): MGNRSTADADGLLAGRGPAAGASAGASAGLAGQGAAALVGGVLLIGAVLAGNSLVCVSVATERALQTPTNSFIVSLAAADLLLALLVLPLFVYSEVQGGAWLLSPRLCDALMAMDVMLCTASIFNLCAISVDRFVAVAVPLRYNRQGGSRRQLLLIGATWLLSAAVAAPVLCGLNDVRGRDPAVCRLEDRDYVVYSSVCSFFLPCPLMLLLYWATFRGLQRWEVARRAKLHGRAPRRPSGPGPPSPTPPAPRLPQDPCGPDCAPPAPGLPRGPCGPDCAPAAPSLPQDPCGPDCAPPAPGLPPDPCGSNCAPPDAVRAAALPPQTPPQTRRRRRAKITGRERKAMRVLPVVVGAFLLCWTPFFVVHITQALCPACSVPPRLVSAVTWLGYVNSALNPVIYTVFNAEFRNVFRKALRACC

[4] = biological target: 5-hydroxytryptamine receptor 1B (Homo sapiens, UniProt P28222); test: Inhibition of 5-HT1B receptor (unknown origin) at 10 uM by PDSP assay relative to control
[5] = biological target: 5-hydroxytryptamine receptor 2B (Homo sapiens, UniProt P41595); test: Inhibition of 5-HT2B receptor (unknown origin) at 10 uM by PDSP assay relative to control
[6] = biological target: Sodium-dependent noradrenaline transporter (Homo sapiens, UniProt P23975); test: Displacement of [3H]-nisoxetine from human NET expressed in HEK cell membranes at 10 uM relative to control; settings: HEK293
[7] = biological target: 5-hydroxytryptamine receptor 1D (Homo sapiens) (UniProt P28221); test: Inhibition of 5-HT1D receptor (unknown origin) at 10 uM by PDSP assay relative to control
Histamine H3 receptor = Histamine H3 receptor (Homo sapiens, UniProt Q9Y5N1); test: Inhibition of histamine H3 receptor (unknown origin) at 10 uM by PDSP assay relative to control
[8] = biological target: Beta-2 adrenergic receptor (Homo sapiens) (UniProt P07550); test: Inhibition of adrenergic beta2 receptor (unknown origin) at 10 uM by PDSP assay relative to control
[9] = biological target: T2, 5-hydroxytryptamine receptor 3A (Homo sapiens) (UniProt P46098); test: Inhibition of 5-HT3 receptor (unknown origin) at 10 uM by PDSP assay relative to control
T2 sequence (whole entry): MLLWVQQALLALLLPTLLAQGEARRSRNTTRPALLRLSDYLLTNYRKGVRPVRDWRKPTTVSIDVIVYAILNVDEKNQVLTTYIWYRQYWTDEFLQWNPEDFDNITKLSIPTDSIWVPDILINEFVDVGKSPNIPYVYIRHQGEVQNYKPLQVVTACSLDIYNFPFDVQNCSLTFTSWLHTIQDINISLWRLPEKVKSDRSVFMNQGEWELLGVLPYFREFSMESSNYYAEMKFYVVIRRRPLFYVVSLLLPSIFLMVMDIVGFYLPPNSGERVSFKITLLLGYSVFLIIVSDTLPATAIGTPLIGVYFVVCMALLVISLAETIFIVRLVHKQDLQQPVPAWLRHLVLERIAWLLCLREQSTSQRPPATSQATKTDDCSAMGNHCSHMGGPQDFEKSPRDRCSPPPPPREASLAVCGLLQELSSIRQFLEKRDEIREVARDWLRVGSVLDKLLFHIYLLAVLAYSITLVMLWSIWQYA

[10] = biological target: D(1A) dopamine receptor (Homo sapiens) (UniProt P21728); test: Inhibition of dopamine D1 receptor (unknown origin) at 10 uM by PDSP assay relative to control
[11] = biological target: 5-hydroxytryptamine receptor 5A (Homo sapiens, UniProt P47898); test: Inhibition of 5-HT5A receptor (unknown origin) at 10 uM by PDSP assay relative to control
PC-12 = test: Selectivity ratio of Ki for sigma-1 receptor in rat brain homogenates to Ki for sigma-2 receptor in rat PC12 cells; assay type: cell-based
[12] = biological target: Sigma non-opioid intracellular receptor 1 (Rattus norvegicus, UniProt Q9R0C9); test: Displacement of [3H](+)-pentazocine from sigma-1 receptor in rat brain homogenates; assay type: tissue-based
Histamine H4 receptor = Histamine H4 receptor (Homo sapiens, UniProt Q9H3N8); test: Inhibition of histamine H4 receptor (unknown origin) at 10 uM by PDSP assay relative to control
[13] = biological target: 5-hydroxytryptamine receptor 7 (Homo sapiens, UniProt P34969); test: Inhibition of 5-HT7 receptor (unknown origin) at 10 uM by PDSP assay relative to control
[14] = biological target: T3, Alpha-1D adrenergic receptor (Homo sapiens) (UniProt P25100); test: Inhibition of adrenergic alpha1D receptor (unknown origin) at 10 uM by PDSP assay relative to control
T3 sequence (whole entry): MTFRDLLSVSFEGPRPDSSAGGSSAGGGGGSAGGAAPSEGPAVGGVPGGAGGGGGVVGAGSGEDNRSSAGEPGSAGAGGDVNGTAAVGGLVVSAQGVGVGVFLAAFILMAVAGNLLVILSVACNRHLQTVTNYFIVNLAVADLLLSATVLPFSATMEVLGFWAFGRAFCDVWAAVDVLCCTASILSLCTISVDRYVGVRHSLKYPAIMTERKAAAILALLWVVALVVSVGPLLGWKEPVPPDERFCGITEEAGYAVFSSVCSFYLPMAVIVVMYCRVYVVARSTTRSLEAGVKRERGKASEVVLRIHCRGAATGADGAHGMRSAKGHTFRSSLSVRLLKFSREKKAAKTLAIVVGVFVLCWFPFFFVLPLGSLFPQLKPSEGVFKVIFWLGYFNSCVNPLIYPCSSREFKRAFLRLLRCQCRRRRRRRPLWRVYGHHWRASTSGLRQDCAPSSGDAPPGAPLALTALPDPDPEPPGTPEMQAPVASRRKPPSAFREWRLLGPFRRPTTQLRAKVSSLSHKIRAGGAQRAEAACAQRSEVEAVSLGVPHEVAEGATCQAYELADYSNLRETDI

[15] = biological target: Delta-type opioid receptor (Homo sapiens, UniProt P41143); test: Inhibition of delta opioid receptor (unknown origin) at 10 uM by PDSP assay relative to control
Mu-type opioid receptor = Mu-type opioid receptor (Homo sapiens, UniProt P35372); test: Inhibition of mu opioid receptor (unknown origin) at 10 uM by PDSP assay relative to control
Mu-type opioid receptor, sequence (P35372 whole entry): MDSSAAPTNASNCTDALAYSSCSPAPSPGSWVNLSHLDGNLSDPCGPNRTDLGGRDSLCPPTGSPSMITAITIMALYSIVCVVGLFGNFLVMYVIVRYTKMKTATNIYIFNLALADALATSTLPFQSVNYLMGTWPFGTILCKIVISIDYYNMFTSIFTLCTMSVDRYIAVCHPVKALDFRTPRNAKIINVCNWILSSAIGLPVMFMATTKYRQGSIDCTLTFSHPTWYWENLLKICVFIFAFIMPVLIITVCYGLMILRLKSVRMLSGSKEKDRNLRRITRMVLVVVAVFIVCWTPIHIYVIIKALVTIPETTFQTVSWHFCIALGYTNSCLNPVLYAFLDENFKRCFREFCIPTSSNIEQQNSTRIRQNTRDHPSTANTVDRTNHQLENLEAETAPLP

Beta-2 adrenergic receptor (Homo sapiens), sequence (P07550 whole entry, looked up): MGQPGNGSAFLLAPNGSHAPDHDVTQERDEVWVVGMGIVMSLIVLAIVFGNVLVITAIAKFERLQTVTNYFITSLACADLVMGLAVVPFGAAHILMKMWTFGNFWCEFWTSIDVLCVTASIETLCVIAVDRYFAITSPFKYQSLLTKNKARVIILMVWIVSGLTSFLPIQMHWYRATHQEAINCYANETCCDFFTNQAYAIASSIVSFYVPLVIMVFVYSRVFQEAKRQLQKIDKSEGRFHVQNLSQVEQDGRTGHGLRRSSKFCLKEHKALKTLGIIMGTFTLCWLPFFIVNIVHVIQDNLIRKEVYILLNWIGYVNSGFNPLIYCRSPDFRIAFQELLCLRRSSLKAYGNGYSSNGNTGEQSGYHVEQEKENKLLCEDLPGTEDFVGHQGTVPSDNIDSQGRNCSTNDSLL
Delta-type opioid receptor, sequence (P41143 whole entry): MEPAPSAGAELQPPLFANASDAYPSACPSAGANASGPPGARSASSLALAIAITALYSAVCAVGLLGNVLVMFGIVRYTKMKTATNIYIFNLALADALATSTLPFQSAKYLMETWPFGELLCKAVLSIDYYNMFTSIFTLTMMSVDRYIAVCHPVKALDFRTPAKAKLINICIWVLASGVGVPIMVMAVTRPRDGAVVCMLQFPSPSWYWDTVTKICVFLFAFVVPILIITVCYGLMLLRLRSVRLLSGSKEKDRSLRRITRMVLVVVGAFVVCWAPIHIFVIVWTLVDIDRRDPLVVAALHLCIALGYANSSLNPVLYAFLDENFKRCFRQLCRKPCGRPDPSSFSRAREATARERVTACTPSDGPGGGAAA
D(1A) dopamine receptor (Homo sapiens), sequence (P21728 whole entry): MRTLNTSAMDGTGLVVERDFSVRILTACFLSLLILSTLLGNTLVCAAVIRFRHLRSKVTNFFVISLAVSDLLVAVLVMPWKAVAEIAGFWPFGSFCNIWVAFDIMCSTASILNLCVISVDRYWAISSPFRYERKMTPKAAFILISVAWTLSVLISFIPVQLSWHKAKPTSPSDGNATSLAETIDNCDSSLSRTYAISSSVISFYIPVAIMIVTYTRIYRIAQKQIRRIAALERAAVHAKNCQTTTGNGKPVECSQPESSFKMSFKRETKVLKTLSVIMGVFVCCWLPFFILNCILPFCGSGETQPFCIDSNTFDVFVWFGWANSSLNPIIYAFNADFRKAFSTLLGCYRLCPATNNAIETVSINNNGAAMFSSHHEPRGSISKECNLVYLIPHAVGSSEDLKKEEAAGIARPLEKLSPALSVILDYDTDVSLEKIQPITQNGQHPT
5-hydroxytryptamine receptor 1D (Homo sapiens), sequence (P28221 whole entry): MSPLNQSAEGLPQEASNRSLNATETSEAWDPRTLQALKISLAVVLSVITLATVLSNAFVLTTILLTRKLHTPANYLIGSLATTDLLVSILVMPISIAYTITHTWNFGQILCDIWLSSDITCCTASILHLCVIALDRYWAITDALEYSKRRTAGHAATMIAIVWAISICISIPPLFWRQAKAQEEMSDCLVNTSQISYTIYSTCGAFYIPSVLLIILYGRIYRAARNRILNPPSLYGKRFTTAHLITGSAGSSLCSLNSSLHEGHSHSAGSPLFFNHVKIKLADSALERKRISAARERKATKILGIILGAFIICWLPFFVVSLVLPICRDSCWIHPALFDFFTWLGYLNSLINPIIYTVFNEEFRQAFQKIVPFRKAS
Histamine H3 receptor, sequence (Q9Y5N1 whole entry): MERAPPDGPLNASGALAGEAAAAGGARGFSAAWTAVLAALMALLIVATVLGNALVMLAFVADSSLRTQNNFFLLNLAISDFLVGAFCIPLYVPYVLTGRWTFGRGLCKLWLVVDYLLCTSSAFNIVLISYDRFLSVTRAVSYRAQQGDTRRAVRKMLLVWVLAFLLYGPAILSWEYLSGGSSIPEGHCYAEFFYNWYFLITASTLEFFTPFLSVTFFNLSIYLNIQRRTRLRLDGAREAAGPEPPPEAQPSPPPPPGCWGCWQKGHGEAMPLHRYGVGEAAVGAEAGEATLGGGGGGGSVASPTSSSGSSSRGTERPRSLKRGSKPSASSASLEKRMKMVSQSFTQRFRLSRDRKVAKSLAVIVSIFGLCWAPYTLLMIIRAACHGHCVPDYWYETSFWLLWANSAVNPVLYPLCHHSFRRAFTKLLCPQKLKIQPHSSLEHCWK
Sigma non-opioid intracellular receptor 1, sequence (Q9R0C9 whole entry): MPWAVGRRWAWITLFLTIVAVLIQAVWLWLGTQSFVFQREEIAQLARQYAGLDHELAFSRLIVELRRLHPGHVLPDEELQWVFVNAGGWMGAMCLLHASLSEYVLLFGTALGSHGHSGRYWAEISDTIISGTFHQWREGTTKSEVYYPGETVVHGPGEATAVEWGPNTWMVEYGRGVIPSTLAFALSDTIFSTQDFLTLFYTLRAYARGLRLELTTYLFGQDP
5-hydroxytryptamine receptor 5A, sequence (P47898 whole entry): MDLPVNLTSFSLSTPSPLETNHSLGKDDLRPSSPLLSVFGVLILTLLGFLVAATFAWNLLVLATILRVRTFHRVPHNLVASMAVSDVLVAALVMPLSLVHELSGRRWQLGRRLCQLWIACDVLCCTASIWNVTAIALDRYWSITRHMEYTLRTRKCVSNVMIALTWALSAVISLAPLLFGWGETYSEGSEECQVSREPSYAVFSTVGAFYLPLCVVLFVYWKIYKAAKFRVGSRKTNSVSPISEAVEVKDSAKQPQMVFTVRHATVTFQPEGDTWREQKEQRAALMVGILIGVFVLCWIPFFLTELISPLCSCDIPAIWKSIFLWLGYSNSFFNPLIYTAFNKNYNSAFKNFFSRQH
5-hydroxytryptamine receptor 2B, sequence (P41595 whole entry): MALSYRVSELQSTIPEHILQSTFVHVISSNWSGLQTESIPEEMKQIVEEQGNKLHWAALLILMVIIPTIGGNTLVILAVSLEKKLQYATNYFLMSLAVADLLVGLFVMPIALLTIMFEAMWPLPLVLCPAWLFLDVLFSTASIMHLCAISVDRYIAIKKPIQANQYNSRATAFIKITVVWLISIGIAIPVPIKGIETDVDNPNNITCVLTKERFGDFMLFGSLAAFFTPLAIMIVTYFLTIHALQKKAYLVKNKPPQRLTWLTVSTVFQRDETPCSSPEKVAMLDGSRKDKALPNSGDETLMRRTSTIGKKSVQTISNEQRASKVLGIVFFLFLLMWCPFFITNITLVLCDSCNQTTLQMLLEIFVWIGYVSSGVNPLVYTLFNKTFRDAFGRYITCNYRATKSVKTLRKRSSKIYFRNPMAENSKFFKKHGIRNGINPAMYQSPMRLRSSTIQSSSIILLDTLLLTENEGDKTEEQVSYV
Sodium-dependent noradrenaline transporter, sequence (P23975 whole entry): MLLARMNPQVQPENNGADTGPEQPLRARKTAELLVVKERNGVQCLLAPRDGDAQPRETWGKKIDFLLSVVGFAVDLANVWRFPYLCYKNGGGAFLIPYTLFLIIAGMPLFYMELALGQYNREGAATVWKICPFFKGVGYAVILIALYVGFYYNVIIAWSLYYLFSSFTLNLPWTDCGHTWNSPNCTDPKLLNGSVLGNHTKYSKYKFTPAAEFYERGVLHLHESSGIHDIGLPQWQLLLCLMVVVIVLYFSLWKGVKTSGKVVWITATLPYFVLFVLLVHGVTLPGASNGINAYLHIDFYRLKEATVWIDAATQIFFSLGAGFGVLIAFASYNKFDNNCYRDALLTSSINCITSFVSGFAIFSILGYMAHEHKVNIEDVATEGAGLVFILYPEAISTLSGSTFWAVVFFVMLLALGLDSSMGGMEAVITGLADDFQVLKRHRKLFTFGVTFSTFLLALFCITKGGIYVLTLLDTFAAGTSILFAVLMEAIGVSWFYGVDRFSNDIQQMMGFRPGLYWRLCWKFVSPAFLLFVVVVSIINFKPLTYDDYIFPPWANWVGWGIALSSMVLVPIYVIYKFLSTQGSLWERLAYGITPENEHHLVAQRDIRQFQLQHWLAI
5-hydroxytryptamine receptor 1E (Homo sapiens), sequence (P28566 whole entry): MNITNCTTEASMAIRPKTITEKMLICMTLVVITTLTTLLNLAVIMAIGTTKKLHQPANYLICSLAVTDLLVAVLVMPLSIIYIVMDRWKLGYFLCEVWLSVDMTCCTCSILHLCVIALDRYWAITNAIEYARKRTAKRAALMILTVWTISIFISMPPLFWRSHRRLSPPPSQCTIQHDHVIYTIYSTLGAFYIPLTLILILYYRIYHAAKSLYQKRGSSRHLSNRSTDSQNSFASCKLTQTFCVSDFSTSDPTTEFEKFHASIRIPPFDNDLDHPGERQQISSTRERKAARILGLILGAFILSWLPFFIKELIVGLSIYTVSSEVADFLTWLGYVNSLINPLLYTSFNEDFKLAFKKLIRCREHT
5-hydroxytryptamine receptor 1B, sequence (P28222 whole entry): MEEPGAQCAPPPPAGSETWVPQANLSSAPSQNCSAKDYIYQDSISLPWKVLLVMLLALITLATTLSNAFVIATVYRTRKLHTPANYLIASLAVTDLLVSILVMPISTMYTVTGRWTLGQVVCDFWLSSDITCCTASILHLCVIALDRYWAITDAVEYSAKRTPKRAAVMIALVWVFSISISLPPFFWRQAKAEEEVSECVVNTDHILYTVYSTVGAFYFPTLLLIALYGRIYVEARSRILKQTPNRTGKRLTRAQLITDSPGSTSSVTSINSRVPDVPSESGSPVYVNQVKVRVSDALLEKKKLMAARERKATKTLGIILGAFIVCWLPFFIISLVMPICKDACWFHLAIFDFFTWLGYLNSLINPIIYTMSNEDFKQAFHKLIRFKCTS

| inhibition [1] [%] | inhibition [2] [%] | inhibition [3] [%] | inhibition [4] [%] | inhibition [5] [%] | inhibition [6] [%] | inhibition [7] [%] | inhibition (Histamine H3 receptor) [%] | inhibition [8] [%] | inhibition [9] [%] | inhibition [10] [%] | inhibition [11] [%] | Ki [12] [nM] | inhibition (Histamine H4 receptor) [%] | inhibition [13] [%] | inhibition [14] [%] | inhibition [15] [%] | inhibition (Mu-type opioid receptor) [%] | SMILES | Ratio Ki (PC-12) |
| --- | --- | --- | --- | --- | --- | --- | --- | --- | --- | --- | --- | --- | --- | --- | --- | --- | --- | --- | --- |
| < 50 | < 50 | < 50 | < 50 | < 50 | < 50 | < 50 | < 50 | < 50 | < 50 | < 50 | < 50 | 448 | < 50 | < 50 | < 50 |  |  | CN(CCc1ccccn1)[C@H]1C2C3CC4C5C3CC2C5C41 (stereo partly specified) | 14 |
| < 50 | < 50 | < 50 | < 50 | < 50 | < 50 | < 50 | < 50 | < 50 | < 50 | < 50 |  | 3 | < 50 | < 50 | < 50 | < 50 | < 50 | C1C2C3CC4C2C2C1C3[C@H](NCC13C5C6C7C5C1C7C63)C42 (stereo partly specified) | 1.5 |
| < 50 | < 50 |  | < 50 | < 50 | < 50 | < 50 | < 50 | < 50 | < 50 | < 50 | < 50 | 21.5 |  | < 50 | < 50 | < 50 | < 50 | c1ccc(CCN[C@H]2C3C4CC5C6C4CC3C6C52)nc1 (stereo partly specified) | 2.5 |
| < 50 | < 50 | < 50 | < 50 | < 50 |  | < 50 | < 50 | < 50 | < 50 | < 50 |  | 17 | < 50 | < 50 | < 50 | < 50 | < 50 | c1cc2c(cc1CN[C@H]1C3C4CC5C6C4CC3C6C51)OCO2 (stereo partly specified) | 1.1 |
| < 50 | < 50 | < 50 | < 50 |  | < 50 | < 50 | < 50 | < 50 | < 50 | < 50 | < 50 | 1010 | < 50 | < 50 | < 50 | < 50 | < 50 | COc1cc(CN[C@H]2C3C4CC5C6C4CC3C6C52)cc(OC)c1OC (stereo partly specified) | 1.6 |

| SMILES | inhibition [1] [%] | inhibition [2] [%] | inhibition [3] [%] | inhibition [4] [%] | inhibition [5] [%] | inhibition [6] [%] | inhibition [7] [%] | inhibition (Histamine H3 receptor) [%] | inhibition [8] [%] | inhibition [9] [%] | inhibition [10] [%] | inhibition [11] [%] | Ki [12] [nM] | inhibition (Histamine H4 receptor) [%] | inhibition [13] [%] | inhibition [14] [%] | inhibition [15] [%] | inhibition (Mu-type opioid receptor) [%] | Ratio Ki (PC-12) |
| --- | --- | --- | --- | --- | --- | --- | --- | --- | --- | --- | --- | --- | --- | --- | --- | --- | --- | --- | --- |
| CN(CCc1ccccc1)[C@H]1C2C3CC4C5C3CC2C5C41 (stereo partly specified) | < 50 | < 50 | < 50 | < 50 |  | < 50 | < 50 | < 50 | < 50 | < 50 | < 50 | < 50 | 773 | < 50 |  | < 50 | < 50 | < 50 | 48.3 |
| c1ccc(CCN[C@H]2C3C4CC5C6C4CC3C6C52)cc1 (stereo partly specified) | < 50 | < 50 |  |  | < 50 | < 50 | < 50 | < 50 | < 50 | < 50 | < 50 | < 50 | 49 | < 50 | < 50 | < 50 | < 50 | < 50 | 5.3 |
